The values that follow come from patent US12479820B2, “Pyridin-3-yl derivatives” (Idorsia Pharmaceuticals Ltd, priority 2019, dated 2025).

The assay addresses T1, human LPA1 receptor (Homo sapiens, UniProt Q92633).
T1 construct: TEV protease site; Gal4-VP16 transcription factor; host or cells: Tango EDG2-bla U2OS cells
In words: Beta-arrestin recruitment assay to determine IC50 values for human LPAR1. It is filed as cell-based. The settings on record: Tango EDG2-bla U2OS cells, antagonist assay, LPA 18:1 500 nM final. The text has this:
Beta-Arrestin Recruitment Assay to Determine IC50 Values for Human LPAR1
The Tango™ EDG2-bla U2OS cells are obtained from Invitrogen. These cells contain the human LPA1 receptor cDNA linked to a TEV protease site and a Gal4-VP16 transcription factor integrated into the Tango™ GPCR-bla U2OS parental cell line. This parental cell line stably expresses a beta-arrestin/TEV protease fusion protein and the beta-lactamase (bla) reporter gene under the control of a UAS response element. Upon LPA (agonist) binding, LPA1 receptor gets activated, leading to arrestin-protease recruitment and proteolytic release of the transcription factor: The transcription factor then regulates transcription of a beta-lactamase reporter construct, which is measured upon addition of the live-cell substrate.
10′000 Tango™ EDG2-bla U2OS cells are seeded in a 384-well black with clear bottom plate in 30 μl Freestyle 293 Expression Medium (Invitrogen) and incubated for 20 h at 37° C., 5% CO2. For antagonist assays, 5 μl of test compound (dilution series in DMSO/Freestyle 293 Expression medium/0.1% fatty acid free BSA (Sigma)) or buffer control are added per well and incubated for 30 min at 37° C., 5% CO2. 5 μl of LPA 18:1 (500 nM final) (solution in Freestyle 293 Expression medium/0.1% fatty acid free BSA (Sigma)) are added per well and the plate incubated for 16 h at 37° C., 5% CO2. Cells are then loaded with LiveBLAzer-FRET™ B/G Substrate (Invitrogen) for 2 h in the dark and the fluorescence emission at 460 nm and 530 nm is measured using the SynergyMx reader (BioTek). Following the background subtraction from both channels, the 460/530 nm emission ratio for each well is calculated, then plotted and fitted to a 4-parameter logistic function to obtain IC50 values. IC50 is the concentration of antagonist inhibiting 50% of the maximal response.

T1 sequence (Q92633 whole entry, the tested form may be a part): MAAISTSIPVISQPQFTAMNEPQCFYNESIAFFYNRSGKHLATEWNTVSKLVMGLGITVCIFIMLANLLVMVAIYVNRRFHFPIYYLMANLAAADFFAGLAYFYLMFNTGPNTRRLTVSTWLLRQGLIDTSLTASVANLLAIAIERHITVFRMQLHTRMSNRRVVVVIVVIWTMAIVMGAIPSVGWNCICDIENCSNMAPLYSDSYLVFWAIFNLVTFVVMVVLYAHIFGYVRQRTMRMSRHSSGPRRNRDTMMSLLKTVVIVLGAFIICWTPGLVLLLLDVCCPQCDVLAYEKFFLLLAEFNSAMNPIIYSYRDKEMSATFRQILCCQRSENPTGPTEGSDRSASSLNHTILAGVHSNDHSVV

As for “4-(4-((6-chloro-4-methoxypyridin-3-yl)carbamoyl)-4-(2-isopropylphenyl)piperidin-1-yl)-2,2-dimethyl-4-oxobutanoic acid [Example 19-20]”, the IC50 was found to be 22 nM.
Turning to `COc1cc(F)ncc1NC(=O)C1(c2ccccc2C(C)C)CNC1` [Example 1, N-(6-fluoro-4-methoxypyridin-3-yl)-3-(2-isopropylphenyl)azetidine-3-carboxamide], the IC50 was 48 nM.
On to `COc1ccncc1NC(=O)C1(c2ccccc2C(C)C)CNC1` [Example 2, 3-(2-isopropylphenyl)-N-(4-methoxypyridin-3-yl)azetidine-3-carboxamide], for which the IC50 was determined as 74 nM.
For the compound `COc1cc(Cl)ncc1NC(=O)C1(c2ccccc2C(C)C)CNC1` [Example 3, N-(6-chloro-4-methoxypyridin-3-yl)-3-(2-isopropylphenyl)azetidine-3-carboxamide], the IC50 was 4 nM.
Take `COc1cc(Br)ncc1NC(=O)C1(c2ccccc2C(C)C)CNC1` [Example 4, N-(6-bromo-4-methoxypyridin-3-yl)-3-(2-isopropylphenyl)azetidine-3-carboxamide]: the IC50 was 6 nM.
To `CCOc1cc(Cl)ncc1NC(=O)C1(c2ccccc2C(C)C)CNC1` [Example 5, N-(6-chloro-4-ethoxypyridin-3-yl)-3-(2-isopropylphenyl)azetidine-3-carboxamide] belongs 3 nM; to `CC(C)Oc1cc(Cl)ncc1NC(=O)C1(c2ccccc2C(C)C)CNC1` [Example 6, N-(6-chloro-4-isopropoxypyridin-3-yl)-3-(2-isopropylphenyl)azetidine-3-carboxamide], 3 nM; to `CC(C)c1ccccc1C1(C(=O)Nc2cnc(Cl)cc2OC2CC2)CNC1` [Example 7, N-(6-chloro-4-cyclopropoxypyridin-3-yl)-3-(2-isopropylphenyl)azetidine-3-carboxamide], 41 nM.
In the case of `COCCOc1cc(Cl)ncc1NC(=O)C1(c2ccccc2C(C)C)CNC1` [Example 8, N-(6-chloro-4-(2-methoxyethoxy)pyridin-3-yl)-3-(2-isopropylphenyl)azetidine-3-carboxamide], the IC50 stood at 252 nM.
`COC[C@H](C)Oc1cc(Cl)ncc1NC(=O)C1(c2ccccc2C(C)C)CNC1` [Example 9, (S)-N-(6-chloro-4-((1-methoxypropan-2-yl)oxy)pyridin-3-yl)-3-(2-isopropylphenyl)azetidine-3-carboxamide]: the IC50 came to 4 nM.
For `COc1cc(Cl)ncc1NC(=O)C1(c2ccccc2C(C)C)CCNCC1` [Example 10, N-(6-chloro-4-methoxypyridin-3-yl)-4-(2-isopropylphenyl)piperidine-4-carboxamide], the IC50 worked out at 12 nM.
Turning to `COc1cc(C)ncc1NC(=O)C1(c2ccccc2C(C)C)CNC1` [Example 11, 3-(2-isopropylphenyl)-N-(4-methoxy-6-methylpyridin-3-yl)azetidine-3-carboxamide], the IC50 was determined as 36 nM.
With `COc1cc(C(F)(F)F)ncc1NC(=O)C1(c2ccccc2C(C)C)CNC1` [Example 12, 3-(2-isopropylphenyl)-N-(4-methoxy-6-(trifluoromethyl)pyridin-3-yl)azetidine-3-carboxamide], the IC50 was 1200 nM.
Turning to `COc1cc(Cl)ncc1NC(=O)C1(c2c(F)cccc2C(C)C)CNC1` [Example 13, N-(6-chloro-4-methoxypyridin-3-yl)-3-(2-fluoro-6-isopropylphenyl)azetidine-3-carboxamide], the IC50 came out at 3 nM.
Regarding `COc1cc(Cl)ncc1NC(=O)C1(c2cc(F)ccc2C(C)C)CNC1` [Example 14, N-(6-chloro-4-methoxypyridin-3-yl)-3-(5-fluoro-2-isopropylphenyl)azetidine-3-carboxamide], the IC50 was 12 nM.
Take `COc1cc(Cl)ncc1NC(=O)C1(c2ncccc2C(C)C)CNC1` [Example 15, N-(6-chloro-4-methoxypyridin-3-yl)-3-(3-isopropylpyridin-2-yl)azetidine-3-carboxamide]: the IC50 was 196 nM.
On to `COc1cc(Cl)ncc1NC(=O)C1(c2nc(F)ccc2C(C)C)CNC1` [Example 16, N-(6-chloro-4-methoxypyridin-3-yl)-3-(6-fluoro-3-isopropylpyridin-2-yl)azetidine-3-carboxamide], for which the IC50 was determined as 419 nM.
Turning to `COc1cc(Cl)ncc1NC(=O)C1(c2ccccc2C2CCCC2)CNC1` [Example 17, N-(6-chloro-4-methoxypyridin-3-yl)-3-(2-cyclopentylphenyl)azetidine-3-carboxamide], the IC50 was found to be 3 nM.
For the compound `COc1cc(Cl)ncc1NC(=O)C1(c2ccccc2C(C)C)CN(C(C)C)C1` [Example 18-1, N-(6-chloro-4-methoxypyridin-3-yl)-1-isopropyl-3-(2-isopropylphenyl)azetidine-3-carboxamide], the IC50 came to 9 nM.
To `COc1cc(Cl)ncc1NC(=O)C1(c2ccccc2C(C)C)CN(CC(C)C)C1` [Example 18-2, N-(6-chloro-4-methoxypyridin-3-yl)-1-isobutyl-3-(2-isopropylphenyl)azetidine-3-carboxamide] belongs 35 nM; to `COc1cc(Cl)ncc1NC(=O)C1(c2ccccc2C(C)C)CN(CCO)C1` [Example 18-3, N-(6-chloro-4-methoxypyridin-3-yl)-1-(2-hydroxyethyl)-3-(2-isopropylphenyl)azetidine-3-carboxamide], 37 nM; to `COc1cc(Cl)ncc1NC(=O)C1(c2ccccc2C(C)C)CN(CCc2nnn[nH]2)C1` [Example 18-4, 1-(2-(1H-tetrazol-5-yl)ethyl)-N-(6-chloro-4-methoxypyridin-3-yl)-3-(2-isopropylphenyl)azetidine-3-carboxamide], 143 nM.
As for `COc1cc(Cl)ncc1NC(=O)C1(c2ccccc2C(C)C)CN(CCCc2nnn[nH]2)C1` [Example 18-5, 1-(3-(1H-tetrazol-5-yl)propyl)-N-(6-chloro-4-methoxypyridin-3-yl)-3-(2-isopropylphenyl)azetidine-3-carboxamide], the figure is 347 nM; as for `COc1cc(Cl)ncc1NC(=O)C1(c2ccccc2C(C)C)CN(CC(=O)O)C1` [Example 18-6, 2-(3-((6-chloro-4-methoxypyridin-3-yl)carbamoyl)-3-(2-isopropylphenyl)azetidin-1-yl)acetic acid], 128 nM; as for `COc1cc(Cl)ncc1NC(=O)C1(c2ccccc2C(C)C)CN(CCN)C1` [Example 18-7, 1-(2-aminoethyl)-N-(6-chloro-4-methoxypyridin-3-yl)-3-(2-isopropylphenyl)azetidine-3-carboxamide], 44 nM.
For `COc1cc(Cl)ncc1NC(=O)C1(c2ccccc2C(C)C)CN(C2CCC2)C1` [Example 18-8, N-(6-chloro-4-methoxypyridin-3-yl)-1-cyclobutyl-3-(2-isopropylphenyl)azetidine-3-carboxamide], the IC50 amounted to 3 nM.
Consider `COc1cc(Cl)ncc1NC(=O)C1(c2ccccc2C(C)C)CN(C2COC2)C1` [Example 18-9, N-(6-chloro-4-methoxypyridin-3-yl)-3-(2-isopropylphenyl)-1-(oxetan-3-yl)azetidine-3-carboxamide], for which the IC50 turned out to be 22 nM.
Consider `COc1cc(Cl)ncc1NC(=O)C1(c2ccccc2C(C)C)CN(CC2(F)CC2)C1` [Example 18-10, N-(6-chloro-4-methoxypyridin-3-yl)-1-((1-fluorocyclopropyl)methyl)-3-(2-isopropylphenyl)azetidine-3-carboxamide], for which the IC50 came to 76 nM.
